Measurements from patent US20230312528A1, “2-OXO-IMIDAZOLIDINE-4-CARBOXAMIDES AS NAV1.8 INHIBITORS” (Merck Sharp & Dohme LLC, priority 2020, published 2023).

Target: human NaV1.8 (Homo sapiens (Human), UniProt Q9Y5Y9)
Assay: Nav1.8 Qube automated patch-clamp assay
Assay type: cell-based
Conditions: human NaV1.8 stably expressed in HEK 293 cells; automated 384-well patch-clamp; resting or inactivated state not specified
How it was run: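 Human NaV1.8 in HEK293 cells, automated whole-cell patch clamp at room temperature: 1 Hz train of ten 20 ms pulses to 10 mV from −90 mV, repolarization to −67 mV. First- and tenth-pulse peak currents gave resting and inactivated-state IC50 values via Hill fits.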

Chain of human NaV1.8 (Q9Y5Y9 whole entry): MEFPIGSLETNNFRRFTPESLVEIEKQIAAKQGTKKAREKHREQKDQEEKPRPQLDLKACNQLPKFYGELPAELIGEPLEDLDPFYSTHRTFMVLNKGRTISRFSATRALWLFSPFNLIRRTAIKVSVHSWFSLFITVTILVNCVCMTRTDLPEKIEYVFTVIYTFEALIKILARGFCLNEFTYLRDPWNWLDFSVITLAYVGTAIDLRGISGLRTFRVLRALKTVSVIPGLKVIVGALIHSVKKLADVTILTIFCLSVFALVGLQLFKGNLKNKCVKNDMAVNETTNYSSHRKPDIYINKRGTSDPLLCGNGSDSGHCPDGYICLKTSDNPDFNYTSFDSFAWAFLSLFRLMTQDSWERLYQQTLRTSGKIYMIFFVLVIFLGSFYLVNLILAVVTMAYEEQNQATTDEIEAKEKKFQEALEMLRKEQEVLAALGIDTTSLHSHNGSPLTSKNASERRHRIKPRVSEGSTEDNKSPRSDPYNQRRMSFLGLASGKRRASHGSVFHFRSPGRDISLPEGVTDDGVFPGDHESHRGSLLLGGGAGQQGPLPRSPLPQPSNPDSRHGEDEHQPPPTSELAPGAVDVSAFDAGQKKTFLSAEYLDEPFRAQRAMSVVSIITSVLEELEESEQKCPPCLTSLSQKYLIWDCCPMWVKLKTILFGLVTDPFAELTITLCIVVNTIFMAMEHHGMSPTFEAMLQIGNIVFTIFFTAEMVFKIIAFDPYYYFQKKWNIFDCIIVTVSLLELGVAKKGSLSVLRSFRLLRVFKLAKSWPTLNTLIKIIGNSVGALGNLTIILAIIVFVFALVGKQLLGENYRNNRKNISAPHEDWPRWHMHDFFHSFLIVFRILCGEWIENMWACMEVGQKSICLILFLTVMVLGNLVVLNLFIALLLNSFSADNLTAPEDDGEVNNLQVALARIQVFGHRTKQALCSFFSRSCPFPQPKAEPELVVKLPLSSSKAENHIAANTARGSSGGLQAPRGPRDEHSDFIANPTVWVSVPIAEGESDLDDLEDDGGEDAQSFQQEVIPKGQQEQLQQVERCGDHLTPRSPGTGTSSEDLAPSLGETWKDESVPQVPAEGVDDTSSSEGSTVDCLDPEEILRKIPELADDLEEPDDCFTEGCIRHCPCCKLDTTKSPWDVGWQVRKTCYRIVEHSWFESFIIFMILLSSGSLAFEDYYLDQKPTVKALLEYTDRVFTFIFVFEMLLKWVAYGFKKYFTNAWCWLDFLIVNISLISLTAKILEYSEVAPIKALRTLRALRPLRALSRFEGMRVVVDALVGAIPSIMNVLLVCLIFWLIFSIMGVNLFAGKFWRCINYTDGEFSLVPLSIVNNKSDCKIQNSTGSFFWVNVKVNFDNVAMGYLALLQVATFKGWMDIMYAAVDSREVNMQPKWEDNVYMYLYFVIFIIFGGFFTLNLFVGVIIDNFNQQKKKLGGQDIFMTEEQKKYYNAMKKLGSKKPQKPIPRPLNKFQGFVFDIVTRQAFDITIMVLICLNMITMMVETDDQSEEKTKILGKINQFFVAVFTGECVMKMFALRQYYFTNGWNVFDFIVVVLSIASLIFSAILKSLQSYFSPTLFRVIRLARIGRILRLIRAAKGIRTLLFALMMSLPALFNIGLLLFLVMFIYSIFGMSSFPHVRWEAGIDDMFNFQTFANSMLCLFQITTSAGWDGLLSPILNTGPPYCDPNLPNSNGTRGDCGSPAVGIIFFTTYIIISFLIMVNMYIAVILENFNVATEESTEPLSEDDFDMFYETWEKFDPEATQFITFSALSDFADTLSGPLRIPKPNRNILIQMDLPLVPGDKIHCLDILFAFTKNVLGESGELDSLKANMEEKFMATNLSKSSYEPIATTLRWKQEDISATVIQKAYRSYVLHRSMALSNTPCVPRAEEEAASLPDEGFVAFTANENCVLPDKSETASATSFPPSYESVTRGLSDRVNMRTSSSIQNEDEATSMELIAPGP

Row | Compound | IC50
1 | O=C1NC[C@@H](C(=O)NC(c2cnc(OC(F)F)nc2)c2ccc(F)c(Cl)c2F)N1 (single isomer, unassigned) [Example 64A, (S)-N-((R or S)-(3-chloro-2,4-difluorophenyl)(2-(difluoromethoxy)pyrimidin-5-yl)methyl)-2-oxoimidazolidine-4-carboxamide] | 79 nM
2 | O=C1NC[C@@H](C(=O)NC(c2cnc(OC(F)F)nc2)c2ccc(F)c(Cl)c2F)N1 (single isomer, unassigned) [Example 64B, (S)-N-((R or S)-(3-chloro-2,4-difluorophenyl)(2-(difluoromethoxy)pyrimidin-5-yl)methyl)-2-oxoimidazolidine-4-carboxamide] | 805 nM
3 | CC(N1CC(C)(C(NC(=O)[C@@H]2CNC(=O)N2)c2ccc(F)c(Cl)c2F)C1)C(F)(F)F (single isomer, unassigned) [Example 65A, (S)—N—((R or S)-(3-chloro-2,4-difluorophenyl)(3-methyl-1-((R or S)-1,1,1-trifluoropropan-2-yl)azetidin-3-yl)methyl)-2-oxoimidazolidine-4-carboxamide] | 16200 nM
4 | CC(N1CC(C)(C(NC(=O)[C@@H]2CNC(=O)N2)c2ccc(F)c(Cl)c2F)C1)C(F)(F)F (single isomer, unassigned) [Example 65B, (S)—N—((R or S)-(3-chloro-2,4-difluorophenyl)(3-methyl-1-((R or S)-1,1,1-trifluoropropan-2-yl)azetidin-3-yl)methyl)-2-oxoimidazolidine-4-carboxamide] | 302 nM
5 | CC(N1CC(C)(C(NC(=O)[C@@H]2CNC(=O)N2)c2ccc(F)c(Cl)c2F)C1)C(F)(F)F (single isomer, unassigned) [Example 65C, (S)—N—((R or S)-(3-chloro-2,4-difluorophenyl)(3-methyl-1-((R or S)-1,1,1-trifluoropropan-2-yl)azetidin-3-yl)methyl)-2-oxoimidazolidine-4-carboxamide] | 309 nM
6 | CC(N1CC(C)(C(NC(=O)[C@@H]2CNC(=O)N2)c2ccc(F)c(Cl)c2F)C1)C(F)(F)F (single isomer, unassigned) [Example 65D, (S)—N—((R or S)-(3-chloro-2,4-difluorophenyl)(3-methyl-1-((R or S)-1,1,1-trifluoropropan-2-yl)azetidin-3-yl)methyl)-2-oxoimidazolidine-4-carboxamide] | 7760 nM
7 | Cc1nc2cc(C(NC(=O)[C@@H]3CNC(=O)N3)c3ccc(F)c(Cl)c3)ccc2s1 (single isomer, unassigned) [Example 66A, (S)—N—((R or S)-(3-chloro-4-fluorophenyl)(2-methylbenzo[d]thiazol-5-yl)methyl)-2-oxoimidazolidine-4-carboxamide] | 63 nM
8 | Cc1nc2cc(C(NC(=O)[C@@H]3CNC(=O)N3)c3ccc(F)c(Cl)c3)ccc2s1 (single isomer, unassigned) [Example 66B, (S)—N—((R or S)-(3-chloro-4-fluorophenyl)(2-methylbenzo[d]thiazol-5-yl)methyl)-2-oxoimidazolidine-4-carboxamide] | 3.8 nM

More lines, now with the values ahead:

Row | IC50 | Compound
9 | 182 nM | O=C1NC[C@@H](C(=O)NC(c2ccc(F)c(Cl)c2)[C@@H]2CC[C@H]2C(F)(F)F)N1 (single isomer, unassigned) [Example 67A, (S)-N-((R or S)-(3-chloro-4-fluoro-phenyl)(trans-2-(trifluoromethyl)cyclobutyl)methyl)-2-oxoimidazolidine-4-carboxamide]
10 | 965 nM | O=C1NC[C@@H](C(=O)NC(c2ccc(F)c(Cl)c2)[C@@H]2CC[C@H]2C(F)(F)F)N1 (single isomer, unassigned) [Example 67B, (S)-N-((R or S)-(3-chloro-4-fluoro-phenyl)(trans-2-(trifluoromethyl)cyclobutyl)methyl)-2-oxoimidazolidine-4-carboxamide]
11 | 26 nM | O=C1NC[C@@H](C(=O)NC(c2ccc(F)c(Cl)c2)C2Cc3c(Cl)cccc32)N1 (single isomer, unassigned) [Example 70A, (S)-N-((R or S)-(3-chloro-4-fluoro-phenyl)((R or S)-2-chlorobicyclo[4.2.0]-octa-1(6),2,4-trien-7-yl)methyl)-2-oxoimidazolidine-4-carboxamide]
12 | 9 nM | O=C1NC[C@@H](C(=O)NC(c2ccc(F)c(Cl)c2)C2Cc3c(Cl)cccc32)N1 (single isomer, unassigned) [Example 70B, (S)-N-((R or S)-(3-chloro-4-fluoro-phenyl)((R or S)-2-chlorobicyclo[4.2.0]-octa-1(6),2,4-trien-7-yl)methyl)-2-oxoimidazolidine-4-carboxamide]
13 | 117 nM | O=C1NC[C@@H](C(=O)NC(c2ccc(F)c(Cl)c2)C2Cc3c(Cl)cccc32)N1 (single isomer, unassigned) [Example 70C, (S)-N-((R or S)-(3-chloro-4-fluoro-phenyl)((R or S)-2-chlorobicyclo[4.2.0]-octa-1(6),2,4-trien-7-yl)methyl)-2-oxoimidazolidine-4-carboxamide]
14 | 650 nM | O=C1NC[C@@H](C(=O)NC(c2ccc(F)c(Cl)c2)C2Cc3c(Cl)cccc32)N1 (single isomer, unassigned) [Example 70D, (S)-N-((R or S)-(3-chloro-4-fluoro-phenyl)((R or S)-2-chlorobicyclo[4.2.0]-octa-1(6),2,4-trien-7-yl)methyl)-2-oxoimidazolidine-4-carboxamide]
15 | 0.2 nM | O=C1NC[C@@H](C(=O)NC(c2ccc(F)c(Cl)c2)c2cc3cc(Cl)ccc3o2)N1 (single isomer, unassigned) [Example 73A, (S)-N-((R or S)-(3-chloro-4-fluorophenyl)(5-chlorobenzofuran-2-yl)methyl)-2-oxoimidazolidine-4-carboxamide]
16 | 0.2 nM | O=C1NC[C@@H](C(=O)NC(c2ccc(F)c(Cl)c2)c2cc3cc(Cl)ccc3o2)N1 (single isomer, unassigned) [Example 73B, (S)-N-((R or S)-(3-chloro-4-fluorophenyl)(5-chlorobenzofuran-2-yl)methyl)-2-oxoimidazolidine-4-carboxamide]
17 | 19 nM | O=C1NC[C@@H](C(=O)NC(c2ccc(Cl)cc2)c2cccc(OC(F)F)n2)N1 (single isomer, unassigned) [Example 74A, (S)-N-((R or S)-(4-chlorophenyl)(6-(difluoromethoxy)pyridin-2-yl)methyl)-2-oxoimidazolidine-4-carboxamide]
18 | 244 nM | O=C1NC[C@@H](C(=O)NC(c2ccc(Cl)cc2)c2cccc(OC(F)F)n2)N1 (single isomer, unassigned) [Example 74B, (S)-N-((R or S)-(4-chlorophenyl)(6-(difluoromethoxy)pyridin-2-yl)methyl)-2-oxoimidazolidine-4-carboxamide]
19 | 58 nM | Cn1nc(C(NC(=O)[C@@H]2CNC(=O)N2)c2ccc(Cl)cc2)cc1C(F)(F)F (single isomer, unassigned) [Example 75A]
20 | 115 nM | Cn1nc(C(NC(=O)[C@@H]2CNC(=O)N2)c2ccc(Cl)cc2)cc1C(F)(F)F (single isomer, unassigned) [Example 75B]
21 | 26 nM | O=C1NC[C@@H](C(=O)NC(c2ccc(F)c(Cl)c2)C2C3CN(CC(F)(F)F)CC32)N1 (single isomer, unassigned) [Example 77A, (4S)-N-((1(R or S))-(3-chloro-4-fluorophenyl)(3-(2,2,2-trifluoroethyl)-3-azabicyclo[3.1.0]hexan-6-yl)methyl)-2-oxoimidazolidine-4-carboxamide]
